Entries after “also recorded” stand apart in the source; their conditions may differ. Read-outs that look alike come from different tables or passages of the source.
Columns and labels:
AKR1B1 [1] = target: T1, AKR1B1 (Homo sapiens, UniProt P15121); conditions: ND = no detectable activity or less than 32 nmol/min/mg; cited from earlier work
AKR1B10 [2] = target: T2, AKR1B10 (Homo sapiens, UniProt O60218); conditions: ND = no detectable activity or less than 32 nmol/min/mg; cited from earlier work
T2 sequence (O60218 whole entry): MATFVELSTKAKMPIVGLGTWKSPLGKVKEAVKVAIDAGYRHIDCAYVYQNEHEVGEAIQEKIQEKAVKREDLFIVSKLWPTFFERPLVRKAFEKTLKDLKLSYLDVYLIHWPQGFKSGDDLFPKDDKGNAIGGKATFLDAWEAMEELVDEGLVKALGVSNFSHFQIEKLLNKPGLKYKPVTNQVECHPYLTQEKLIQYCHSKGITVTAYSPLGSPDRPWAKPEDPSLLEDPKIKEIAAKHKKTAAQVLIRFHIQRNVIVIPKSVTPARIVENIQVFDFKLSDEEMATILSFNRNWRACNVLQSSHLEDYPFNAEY

CaCo2 cells = assay: Cytotoxicity assay (cell survival rate, MTT); format: cell-based
Description: (§1) HepG2 cells, SKOV3 cells, HCT116 cells and CaCo2 cells were cultured in DMEM medium, SW480 cells in 1640 medium, and HT29 cells in McCoy’s 5A medium. All cell culture media were supplemented with 10% FBS, 1% PSN, and cells were cultured in a humidified incubator containing 5% CO2 at 37° C. In cytotoxicity assays, cells were seeded at 1 × 10^5 cells/well in 96 well plates with full medium. In GSH assay and Western blot analysis, cells were seeded at 3× 10^6 cells/well in 6 well plates.
(§2) The AKR1Bs substrates’ cytotoxicity was assessed by cell survival rate using MTT assay. After the cells were treated with the substrates for the length of time indicated, MTT was added to a final concentration of 0.5 mg/ml in each well of a 96-well plate, and the plates were incubated at 37° C. for 4 hour. Then DMSO was added to dissolve the formazan product, the amount of which is proportional to the number of live cells. The absorbance of dissolved dye was measured at 540 nm using an automatic microplate reader.

HCT116 cells = assay: Cytotoxicity assay (cell survival rate, MTT); format: cell-based
Description: as §1, §2

HepG2 cells = assay: Cytotoxicity assay (cell survival rate, MTT); format: cell-based
Description: as §1, §2

SKOV3 cells = assay: Cytotoxicity assay (cell survival rate, MTT); format: cell-based
Description: as §1, §2

HT29 cells = assay: Cytotoxicity assay (cell survival rate, MTT); format: cell-based
Description: as §2, with “HepG2 cells, SKOV3 cells, HCT116 cells and CaCo2 cells were cultured in DMEM medium, SW480 cells in 1640 medium, and HT29 cells in McCoy’s 5A medium. […] In cytotoxicity assays, cells were seeded at 1 × 10^5 cells/well in 96 well plates with full medium. In GSH assay and Western blot analysis, cells were seeded at 3× 10^6 cells/well in 6 well plates. The AKR1Bs” for “The AKR1Bs”

SW480 cells = assay: Cytotoxicity assay (cell survival rate, MTT); format: cell-based
Description: as §2, with “HepG2 cells, SKOV3 cells, HCT116 cells and CaCo2 cells were cultured in DMEM medium, SW480 cells in 1640 medium, and HT29 cells in McCoy’s 5A medium. […] In cytotoxicity assays, cells were seeded at 1 × 10^5 cells/well in 96 well plates with full medium. In GSH assay and Western blot analysis, cells were seeded at 3× 10^6 cells/well in 6 well plates. The AKR1Bs” for “The AKR1Bs”

AKR1B1 [3] = assay: Western blot of AKR1B1 protein level in treated cells; format: cell-based, human
Description: as §1
(§3) Cells were lysed on ice with the protein extraction reagent. Total protein (30 µg) per sample were loaded onto 10% SDS-polyacrylamide gels and separated at 75V, and then electrotransferred to polyvinylidene difluoride (PVDF) membranes overnight at 15 V. Membranes were then soaked in 5% nonfat milk in TBS at room temperature for 1 hour and then incubated with rabbit anti-AKR1B1 antibodies (1:3000) or rabbit anti-AKR1B10 antibodies (1:3000) at room temperature for 2 hours. After being washed, the membranes were incubated in HRP-conjugated goat anti-rabbit or goat anti-mouse IgG secondary antibodies (1:5000) for 1 hour at room temperature, followed by washing and incubation with ECL reagents for 1 min. β-actin monoclonal mouse antibodies (1:5000) was used as reference to assess the relative amounts of proteins loaded per lane.

AKR1B10 [4] = assay: Western blot of AKR1B10 protein level in treated cells; format: cell-based, human
Description: as §1, §3

AKR1B1 [5] = target: T1, AKR1B1; assay: Enzyme activity assay (NADPH oxidation), purified AKR1B1; format: biochemical; conditions: 20 mM substrate, pH 6.2, 30° C.
Description: (§4) Assay of AKR1B1 and AKR1B10 enzymes activities were conducted in 1 ml of the reaction mixture containing 135 mM sodium phosphate buffer (pH 6.2 for AKR1B1 or pH 7.0 for AKR1B10), 0.2 mM NADPH, 0.3 M ammonium sulfate, 2 µg purified protein and 20 mM of their substrate as indicated. The reaction mix was incubated at 30° C. for 30 minutes (min). Protein-free blank controls were included. The decrease of NADPH was monitored by spectrophotometer at 340 nm. Enzyme activity was calculated as the amount of NADPH oxidized/min/mg of protein (Shen Y et al., Chem Biol Interact. 2011, 191(1-3): 192-198).

AKR1B10 [6] = target: T2, AKR1B10; assay: Enzyme activity assay (NADPH oxidation), purified AKR1B10; format: biochemical; conditions: 20 mM substrate, pH 7.0, 30° C.
Description: as §4

[7] = for Death Rate: both, ICR, 14 days
Description: ICR mice (18-22 g) were acquired from the Laboratory Animal Services Centre, The Chinese University of Hong Kong. These animals were housed in an animal room with 12 h of day and dark cycles, and the temperature maintained at around 25° C. There were 4 male and 4 female in each treatment and control group. They were treated with either diacetyl or glyceraldehyde. Diacetyl and glyceraldehyde were dissolved with saline and administered to the mice by intravenous injection with the amount indicated. […] Mortality was recorded daily for the calculation of […] (LD50). All surviving animals were euthanized with diethyl-ether at the end of the experiment.

HepG2 tumor xenograft = conditions: 500 mg/kg, tail vein, daily for 21 days
Description: Six-week-old male BALB/C nude mice were purchased from the Laboratory Animal Unit of the University of Hong Kong. Mice were allowed to acclimate to laboratory conditions for 1 week before cancer cells injection. […] Treatment was initiated when the tumor grew to about 200±100 mm3. […] Mice were randomized and allocated to different groups. They received daily tail vein injection for 3 weeks of one of the following: glyceraldehyde (500 mg/kg body weight); diacetyl (80 mg/kg body weight); or normal saline. Mice were weighted and the sizes of the tumors were measured with calipers every 3 days. Tumor volumes were calculated with the formula: length×width2/2. Animals were humanely killed at the end of the experiment and their tumors were weighed.

[8] = BSO with 1.25/0.625 mM substrate, NAC with 2.5/1.25 mM substrate
[9] = BSO (0.3 mM) with 1.25/0.625 mM substrate, NAC with 2.5/1.25 mM substrate
[10] = pretreated 24 hours before addition of 2DG
[11] = substrate alone, 2DG for 72 hours

O=C[C@H](O)[C@@H](O)[C@H](O)[C@H](O)CO [D-Glucose]
AKR1B1 activity, amount of NADPH (nmol) oxidized per min per mg of protein (AKR1B1 [1]): 129 nmol/min/mg | AKR1B10 activity, amount of NADPH (nmol) oxidized per min per mg of protein (AKR1B10 [2]): 65 nmol/min/mg

CCCCS(=N)(=O)CCC(N)C(=O)O [BSO, L-buthionine-[S,R]-sulfoximine]
Effect on toxicity of glyceraldehyde and diacetyl (CaCo2 cells; [8]): enhanced the toxicity | Effect on toxicity of glyceraldehyde and diacetyl (HCT116 cells; [8]): enhanced the toxicity | Effect on toxicity of glyceraldehyde and diacetyl (HepG2 cells; [9]): more HepG2 and SKOV3 cells were killed; also recorded: enhanced the toxicity | Effect on toxicity of glyceraldehyde and diacetyl (SKOV3 cells; [9]): more HepG2 and SKOV3 cells were killed; also recorded: enhanced the toxicity

O=Cc1ccc([N+](=O)[O-])cc1 [p-Nitrobenzaldehyde]
AKR1B1 activity, amount of NADPH (nmol) oxidized per min per mg of protein (AKR1B1 [1]): 760 nmol/min/mg | AKR1B10 activity, amount of NADPH (nmol) oxidized per min per mg of protein (AKR1B10 [2]): 4480 nmol/min/mg

CC(=O)C=O [Methyglyoxal]
AKR1B1 activity, amount of NADPH (nmol) oxidized per min per mg of protein (AKR1B1 [1]): 942 nmol/min/mg | AKR1B10 activity, amount of NADPH (nmol) oxidized per min per mg of protein (AKR1B10 [2]): 7458 nmol/min/mg

CC(C)C[C@H](NC(=O)[C@H](Cc1ccccc1)NC(=O)c1cnccn1)B(O)O [Bortezomib]
Sensitivity to 2DG after pretreatment (HT29 cells; [10]): significantly more cells were killed by 2DG | Sensitivity to 2DG after pretreatment (SW480 cells; [10]): significantly more cells were killed by 2DG | AKR1B1 protein level (western blot) (AKR1B1 [3]; HT29 cells): increased | AKR1B1 protein level (western blot) (AKR1B1 [3]; SW480 cells): induced | AKR1B10 protein level (western blot) (AKR1B10 [4]; HT29 cells): increased | AKR1B10 protein level (western blot) (AKR1B10 [4]; SW480 cells): induced only AKR1B1

O=CC(O)CO (racemic) [Glyceraldehyde, glyceraldehyde]
Cytotoxicity of AKR1Bs substrate (cell survival rate) (CaCo2 cells; [11]): dose dependently and preferentially kill | Cytotoxicity of AKR1Bs substrate (cell survival rate) (HCT116 cells; [11]): dose dependently and preferentially kill | Cytotoxicity of AKR1Bs substrate (cell survival rate) (HepG2 cells; [11]): dose-dependently and preferentially kill; also recorded: dose dependently and preferentially kill; also recorded: most efficient | Cytotoxicity of AKR1Bs substrate (cell survival rate) (SKOV3 cells; [11]): dose-dependently and preferentially kill; also recorded: dose dependently and preferentially kill; also recorded: most efficient | Cytotoxicity of AKR1Bs substrate (cell survival rate) (HT29 cells; [11]): more resistant | Cytotoxicity of AKR1Bs substrate (cell survival rate) (SW480 cells; [11]): more resistant | Efficiency as substrate of AKR1B1 (rate of NADPH depletion) (AKR1B1 [5]): excellent substrate | Efficiency as substrate of AKR1B1 (rate of NADPH depletion) (AKR1B1 [5]; listed as glyceraldehyde): best substrate | Efficiency as substrate of AKR1B10 (rate of NADPH depletion) (AKR1B10 [6]): excellent substrate | LD50 ([7]; ICR mice, intravenous injection daily for 14 days): greater than 2000 mg/kg BW | Death Rate ([7]; mouse, in vivo, iv, 1000 mg/kg): 0% | Death Rate ([7]; mouse, in vivo, iv, 2000 mg/kg): 0% | LD50 ([7]; mouse, in vivo, iv): >2000 mg/kg BW | Tumor volume (HepG2 tumor xenograft): significantly reduced | Tumor weight (HepG2 tumor xenograft): significantly reduced | AKR1B1 activity, amount of NADPH (nmol) oxidized per min per mg of protein (AKR1B1 [1]): 1681 nmol/min/mg | AKR1B10 activity, amount of NADPH (nmol) oxidized per min per mg of protein (AKR1B10 [2]): 1853 nmol/min/mg

— patent US20230190774A1, “METHOD OF USING SUBSTRATES OF AKR1Bl/AKR1B10 AS ANTI-CANCER DRUGS” (Beijing Normal University Hong Kong Baptist University …, priority 2015, published 2023)
